Measurements: ChEMBL document CHEMBL1121398, “Synthetic modulators of the complement system. 1. Synthesis and biological activity of 5,5',5''-[1,3,6-naphthalenetriyltris(sulfonylimino)]-tris[1,3-benzenedisulfonic acid] hexasodium salt” (1980)
Values after ≈ are worked out from the molar mass of the structure shown.

Key:
[1] = Inhibition of the complement alternative pathway by Mercaptan-treated human erythrocytes lyse in autologous serum via the alternative pathway activated by cobra venom factor in the presence of appropriate serial twofold dilutions of the test compound
[2] = species on record: Homo sapiens; experiment: Ability to destroy fluid-phase human complement 1 in the presence of complement 4 with appropriate serial twofold dilutions of the test compound using C1 assay
[3] = test system: Cavia porcellus; experiment: Evaluated in vivo after intraperitoneal administration by guinea pig assay; assay type: functional
[4] = species on record: Cavia porcellus; experiment: Evaluated in vitro for complement activity using guinea pig serum was determined by cap 50 assay; assay type: functional; settings: for EC50: read-out: ED50 (the source's name)
[5] = species on record: Homo sapiens; experiment: The ability to inhibit late component of human complement (C3-C9) using C-late assay

Question: With `Nc1ccc2cc(S(=O)(=O)[O-])cc(O)c2c1/N=N/c1ccc(NC(=O)Nc2ccc(/N=N/c3c(N)ccc4cc(S(=O)(=O)[O-])cc(O)c34)c(S(=O)(=O)[O-])c2)cc1S(=O)(=O)[O-].[Na+].[Na+].[Na+].[Na+]` as the compound, how does the ED50 [1] read?
Answer: 167 µg/mL

Question: And the ED50 [2]?
Answer: 21 µg/mL

Question: What about the Inhibition [3] of the same compound?
Answer: >95%

Question: What about the Activity [4] of the same compound?
Answer: 113 µg/mL

Question: And the ED50 [5]?
Answer: 6 µg/mL

Question: Which ED50 [1] does the source give for `O=S(=O)([O-])c1cc(NS(=O)(=O)c2ccc3c(S(=O)(=O)Nc4cc(S(=O)(=O)[O-])cc(S(=O)(=O)[O-])c4)cc(S(=O)(=O)Nc4cc(S(=O)(=O)[O-])cc(S(=O)(=O)[O-])c4)cc3c2)cc(S(=O)(=O)[O-])c1.[Na+].[Na+].[Na+].[Na+].[Na+].[Na+]` here?
Answer: 21 µg/mL

Question: What about the ED50 [2] of the same compound?
Answer: 0.7 µg/mL

Question: And the Inhibition [3]?
Answer: 86%

Question: And the EC50 [4]?
Answer: 21 µg/mL

Question: What about the ED50 [5] of the same compound?
Answer: 12 µg/mL

Question: What does the source list for `Cc1ccc(C(=O)Nc2ccc(S(=O)(=O)O)c3cc(S(=O)(=O)O)cc(S(=O)(=O)O)c23)cc1NC(=O)c1cccc(NC(=O)Nc2cccc(C(=O)Nc3cc(C(=O)Nc4ccc(S(=O)(=O)O)c5cc(S(=O)(=O)O)cc(S(=O)(=O)O)c45)ccc3C)c2)c1` [SURAMIN]?
Answer: ED50 [1]: 167 µg/mL; ED50 [2]: 21 µg/mL; Inhibition [3]: 44%; EC50 [4]: 603 µg/mL (≈ 465 µM); ED50 [5]: 50 µg/mL (≈ 38.5 µM)
